Measurements taken from ChEMBL document CHEMBL1201862, “PubChem BioAssay data set” (2004).
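1) Cells in 96-well plates. 2) Compound, 48 h, 5 concentrations. 3) Linear interpolation between surrounding doses. 4) Unreached endpoint = highest concentration. GI50 is the concentration that inhibits growth by half.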 Active and inactive are the calls of the source. No stated cut-off is given here; in the data, active = GI50 up to about 1.1 µM and inactive = higher.

Legend:
Experiment in all cases: NCI anticancer screen, dose series, 48 h
BT-549 = tested on: BT-549
SF-268 = tested on: SF-268
SK-OV-3 = tested on: SK-OV-3
NCI-H522 = tested on: NCI-H522
RPMI-8226 = tested on: RPMI-8226
LOX IMVI = tested on: LOX IMVI
NCI-H23 = tested on: NCI-H23
NCI-H460 = tested on: NCI-H460
MDA-MB-435 = tested on: MDA-MB-435
M14 = tested on: M14
MCF7 = tested on: MCF7
NCI-H226 = tested on: NCI-H226
UACC-62 = tested on: UACC-62
ACHN = tested on: ACHN
SR = tested on: SR
HCT-116 = tested on: HCT-116
HT-29 = tested on: HT-29
786-0 = tested on: 786-0
HOP-92 = tested on: HOP-92
Malme-3M = tested on: Malme-3M

Measured: GI50

CC(=O)Nc1ccc(S(=O)(=O)c2nnc(NC(C)=O)s2)cc1
inactive: BT-549 > 100 µM | SF-268 > 100 µM | SK-OV-3 > 100 µM | NCI-H522 > 100 µM | RPMI-8226 > 100 µM | LOX IMVI > 100 µM | NCI-H23 > 100 µM | NCI-H460 > 100 µM | MDA-MB-435 > 100 µM | M14 > 100 µM | MCF7 > 100 µM | NCI-H226 > 100 µM | UACC-62 > 100 µM | ACHN > 100 µM | SR > 100 µM | HCT-116 > 100 µM | HT-29 > 100 µM | 786-0 > 100 µM | HOP-92 > 100 µM | Malme-3M > 100 µM

O=C1C2CC=CCC2C(=O)N1n1c(Cc2ccc(Cl)cc2)n[nH]c1=O (stereo not drawn)
inactive: BT-549 > 100 µM | SF-268 > 100 µM | SK-OV-3 > 100 µM | NCI-H522 > 100 µM | RPMI-8226 > 100 µM | LOX IMVI > 100 µM | NCI-H23 > 100 µM | MDA-MB-435 > 100 µM | M14 > 100 µM | MCF7 > 100 µM | NCI-H226 > 100 µM | UACC-62 > 100 µM | ACHN > 100 µM | SR > 100 µM | HCT-116 > 100 µM | HT-29 > 100 µM | 786-0 > 100 µM | HOP-92 > 100 µM | Malme-3M > 100 µM

O=C1NC(=O)c2ccccc2/C1=C/c1ccc2c(c1)OCO2
inactive: BT-549 20.9 µM | SF-268 21.8 µM | SK-OV-3 27.3 µM | NCI-H522 31.3 µM | RPMI-8226 19.3 µM | LOX IMVI 20.9 µM | NCI-H23 22.3 µM | MDA-MB-435 18.4 µM | M14 24 µM | MCF7 20 µM | NCI-H226 27.9 µM | UACC-62 22.1 µM | ACHN 15.8 µM | SR 36 µM | HCT-116 5 µM | HT-29 20.8 µM | 786-0 8.02 µM | HOP-92 27.1 µM | Malme-3M 31.3 µM

COc1ccc2c(c1)OCC1(O)Cc3ccccc3OC21 (stereo not drawn)
inactive: BT-549 > 100 µM | SF-268 > 100 µM | SK-OV-3 > 100 µM | NCI-H522 > 100 µM | RPMI-8226 > 100 µM | LOX IMVI > 100 µM | NCI-H23 > 100 µM | MDA-MB-435 > 100 µM | M14 > 100 µM | MCF7 > 100 µM | NCI-H226 > 100 µM | UACC-62 > 100 µM | ACHN > 100 µM | SR > 100 µM | HCT-116 > 100 µM | HT-29 > 100 µM | 786-0 > 100 µM | HOP-92 > 100 µM | Malme-3M > 100 µM

C=CCSC1=N/C(=C\c2ccc(OC)cc2)C(=O)N1CC=C
inactive: BT-549 27 µM | SF-268 60.4 µM | SK-OV-3 > 100 µM | NCI-H522 27.7 µM | RPMI-8226 15.5 µM | LOX IMVI 33 µM | NCI-H23 28.4 µM | NCI-H460 27.6 µM | MDA-MB-435 26.4 µM | M14 36.7 µM | MCF7 28.4 µM | UACC-62 30.3 µM | ACHN 33.3 µM | SR 13.5 µM | HCT-116 25.4 µM | HT-29 20.2 µM | 786-0 25.5 µM | HOP-92 28.8 µM | Malme-3M 27.7 µM

CC1=NN(C(=O)CC(=O)Nc2ccc(C)cc2)C(=O)C1/N=N/c1ccc(C(=O)O)cc1 (stereo not drawn)
inactive: BT-549 > 100 µM | SF-268 > 100 µM | NCI-H522 > 100 µM | RPMI-8226 > 100 µM | LOX IMVI 69.3 µM | NCI-H23 > 100 µM | MDA-MB-435 > 100 µM | M14 > 100 µM | MCF7 > 100 µM | UACC-62 > 100 µM | ACHN > 100 µM | SR 78.5 µM | HCT-116 > 100 µM | HT-29 > 100 µM | 786-0 > 100 µM | HOP-92 > 100 µM | Malme-3M > 100 µM

COc1ccc(-n2cnc3c(NC(CCSC)C(=O)O)ncnc32)cc1 (stereo not drawn)
inactive: BT-549 > 100 µM | SF-268 > 100 µM | SK-OV-3 > 100 µM | NCI-H522 > 100 µM | RPMI-8226 > 100 µM | LOX IMVI > 100 µM | NCI-H23 > 100 µM | NCI-H460 > 100 µM | MDA-MB-435 > 100 µM | M14 > 100 µM | MCF7 > 100 µM | NCI-H226 > 100 µM | UACC-62 > 100 µM | ACHN > 100 µM | SR > 100 µM | HCT-116 > 100 µM | HT-29 > 100 µM | 786-0 > 100 µM | HOP-92 74.1 µM

COc1ccccc1/C=C1\Sc2scc(-c3ccc(O)c(O)c3)[n+]2C1=O
inactive: BT-549 17.8 µM | SF-268 58.9 µM | SK-OV-3 21.4 µM | NCI-H522 8.99 µM | RPMI-8226 13.8 µM | LOX IMVI 18 µM | NCI-H23 26.6 µM | NCI-H460 18.8 µM | MDA-MB-435 27.2 µM | M14 15.1 µM | MCF7 25.5 µM | NCI-H226 27.9 µM | UACC-62 16.7 µM | ACHN 16.7 µM | SR 6.67 µM | HCT-116 16.8 µM | HT-29 21.4 µM | 786-0 15.2 µM | HOP-92 19.7 µM

Cc1ccc(-c2n[nH]c(=O)n2NC(=O)c2ccccc2C(=O)O)cc1
inactive: BT-549 > 100 µM | SF-268 > 100 µM | NCI-H522 > 100 µM | RPMI-8226 > 100 µM | LOX IMVI > 100 µM | NCI-H23 > 100 µM | NCI-H460 > 100 µM | MDA-MB-435 > 100 µM | M14 > 100 µM | MCF7 > 100 µM | NCI-H226 > 100 µM | UACC-62 > 100 µM | ACHN > 100 µM | SR > 100 µM | HCT-116 > 100 µM | HT-29 > 100 µM | 786-0 > 100 µM | HOP-92 > 100 µM | Malme-3M > 100 µM

COC(=O)NC(C(F)(F)F)(C(F)(F)F)P1(=O)OCCCO1
inactive: BT-549 22.1 µM | SF-268 25.7 µM | SK-OV-3 18.9 µM | NCI-H522 14.5 µM | RPMI-8226 18.1 µM | LOX IMVI 16.4 µM | NCI-H23 20.2 µM | NCI-H460 30.2 µM | MDA-MB-435 17.2 µM | M14 24.8 µM | MCF7 31.3 µM | NCI-H226 16.2 µM | UACC-62 15 µM | ACHN 21.4 µM | SR 20.7 µM | HCT-116 23.2 µM | HT-29 23.8 µM | 786-0 36.9 µM | HOP-92 35.8 µM

N/N=c1\[nH]c2ccccc2o1
inactive: BT-549 > 100 µM | SF-268 > 100 µM | NCI-H522 57.1 µM | RPMI-8226 67.6 µM | LOX IMVI > 100 µM | NCI-H23 > 100 µM | NCI-H460 > 100 µM | MDA-MB-435 > 100 µM | M14 > 100 µM | MCF7 88.7 µM | NCI-H226 > 100 µM | UACC-62 > 100 µM | ACHN > 100 µM | SR 52 µM | HCT-116 80 µM | HT-29 > 100 µM | 786-0 86.7 µM | HOP-92 > 100 µM | Malme-3M > 100 µM
